Experimental data: patent US10370436B2, “Anti-pseudomonas Psl binding molecules and uses thereof” (priority 2011, dated 2019)

Test system: P. aeruginosa PAO10 LPS
Assay: Endotoxemia (LPS challenge) model
Assay type: in vivo, C57Bl/6 mice
Settings: 0.2 mg/kg i.p. 2 h prior to challenge
Method: In particular, C57Bl/6 mice (10 per group) were dosed i.p. with mAb or PMB-mAb conjugate 6 h prior to challenge with P. aeruginosa PAO10 LPS (Sigma) and D-galactosamine. PMB control was dosed i.p. 2 h prior to challenge at 0.2 mg/kg and typically provides 80-100% protection. Control mice dosed with unconjugated CAM-003 all died within 18 h.
TM conjugates were dosed at 45, 15 and 5 mg/kg.

For Polymyxin B [PMB, reference compound], the protection was 80-100%.
